Each cell line was assayed with O=C(NC1CCNCC1)c1n[nH]cc1NC(=O)c1c(Cl)cccc1Cl [AT-7519] (assay: relative viability (nuclei count vs DMSO), 5 days (fraction); higher = more cells survive). Settings: 0.01 µM.
Outline: (§1)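 Acceptance criteria were a control CV below 25% and at least one doubling per plate. Lung cancer cell lines in 1536-well plates got five library-drug doses (not always all listed) √10 apart by pinning and were left 5 days with no medium change. Viability divides treated-well nuclei by vehicle-well nuclei and is the median across plates. Nuclei were counted by MetaXpress from 4× Hoechst images.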

Row | Cell Line | relative viability
1 | NCI-H23 | 0.856
2 | NCI-H1299 | 1.05
3 | NCI-H647 | 1
4 | CAL-12T | 0.98
5 | NCI-H1651 | 0.959
6 | EPLC-272H | 0.889
7 | NCI-H2228 | 1.15
8 | NCI-H1792 | 0.664
9 | NCI-H1355 | 1.01
10 | NCI-H3122 | 1.09
11 | NCI-H1437 | 0.985
12 | NCI-H1755 | 1.01
13 | NCI-H2023 | 1.06
14 | HCC-15 | 1.03
15 | NCI-H1793 | 0.854
16 | PC-14 | 0.971
17 | EKVX | 0.948
18 | LC-2-ad | 0.996
19 | NCI-H1563 | 0.955
20 | NCI-H1944 | 0.909
21 | NCI-H1975 | 1.04
22 | RERF-LC-KJ | 1.01
23 | ABC-1 | 1.1
24 | NCI-H358 | 0.889
25 | NCI-H650 | 1.02
26 | PC-3 [JPC-3] | 1.01

Same assay, conditions: 0.03162 µM

Row | Cell Line | relative viability
27 | NCI-H23 | 0.858
28 | NCI-H1299 | 1.02
29 | NCI-H647 | 0.923
30 | CAL-12T | 1.06
31 | NCI-H1651 | 0.897
32 | EPLC-272H | 0.84
33 | NCI-H2228 | 0.926
34 | NCI-H1792 | 0.768
35 | NCI-H1355 | 0.961
36 | NCI-H3122 | 1
37 | NCI-H1437 | 0.99
38 | NCI-H1755 | 0.994
39 | NCI-H2023 | 0.873
40 | HCC-15 | 0.911
41 | NCI-H1793 | 0.9
42 | PC-14 | 0.94
43 | EKVX | 0.911
44 | LC-2-ad | 0.99
45 | NCI-H1563 | 0.934
46 | NCI-H1944 | 0.898
47 | NCI-H1975 | 0.849
48 | RERF-LC-KJ | 0.995
49 | ABC-1 | 0.876
50 | NCI-H358 | 0.86
51 | NCI-H650 | 0.871
52 | PC-3 [JPC-3] | 1.02

Same assay, conditions: 0.3162 µM

Row | Cell Line | relative viability
53 | NCI-H23 | 0.912
54 | NCI-H1299 | 1.02
55 | NCI-H647 | 0.886
56 | CAL-12T | 0.552
57 | NCI-H1651 | 1.02
58 | EPLC-272H | 0.844
59 | NCI-H2228 | 0.936
60 | NCI-H1792 | 0.874
61 | NCI-H1355 | 0.992
62 | NCI-H3122 | 1.01
63 | NCI-H1437 | 0.999
64 | NCI-H1755 | 1.02
65 | NCI-H2023 | 0.848
66 | HCC-15 | 0.897
67 | NCI-H1793 | 0.905
68 | PC-14 | 0.928
69 | EKVX | 0.939
70 | LC-2-ad | 1.01
71 | NCI-H1563 | 1.02
72 | NCI-H1944 | 0.921
73 | NCI-H1975 | 0.879
74 | RERF-LC-KJ | 0.991
75 | ABC-1 | 0.787
76 | NCI-H358 | 0.85
77 | NCI-H650 | 1.01
78 | PC-3 [JPC-3] | 1.01

Same assay, conditions: 1 µM

Row | Cell Line | relative viability
79 | NCI-H23 | 0.616
80 | NCI-H1299 | 1.18
81 | NCI-H647 | 0.72
82 | CAL-12T | 0.256
83 | NCI-H1651 | 0.997
84 | EPLC-272H | 0.761
85 | NCI-H2228 | 0.591
86 | NCI-H1792 | 0.989
87 | NCI-H1355 | 1.05
88 | NCI-H3122 | 0.699
89 | NCI-H1437 | 0.879
90 | NCI-H1755 | 0.963
91 | NCI-H2023 | 0.547
92 | HCC-15 | 0.754
93 | NCI-H1793 | 0.832
94 | PC-14 | 0.714
95 | EKVX | 1.03
96 | LC-2-ad | 0.909
97 | NCI-H1563 | 0.998
98 | NCI-H1944 | 0.87
99 | NCI-H1975 | 0.442
100 | RERF-LC-KJ | 0.675
101 | ABC-1 | 0.699
102 | NCI-H358 | 0.31
103 | NCI-H650 | 1.03
104 | PC-3 [JPC-3] | 1.03

What follows are cell lines tested with C1=CC2=C(C=C(C(=C2N=C1)O)N=NC3=CC4=C(C=C3)C=C(C=C4)S(=O)(=O)O)S(=O)(=O)O in the same assay as above. Settings: 0.08 µM.
Outline: as §1

Row | Cell Line | relative viability
105 | NCI-H23 | 0.912
106 | NCI-H1299 | 1.02
107 | NCI-H647 | 0.877
108 | CAL-12T | 1.08
109 | NCI-H1651 | 1.03
110 | EPLC-272H | 1.03
111 | NCI-H2228 | 1.31
112 | NCI-H1792 | 0.951
113 | NCI-H1355 | 1.08
114 | NCI-H3122 | 1.03
115 | NCI-H1437 | 1
116 | NCI-H1755 | 1.03
117 | NCI-H2023 | 1.02
118 | HCC-15 | 1.14
119 | NCI-H1793 | 1.1
120 | PC-14 | 1.02
121 | EKVX | 0.973
122 | LC-2-ad | 1.02
123 | NCI-H1563 | 1.09
124 | NCI-H1944 | 1.03
125 | NCI-H1975 | 1.01
126 | RERF-LC-KJ | 1.08
127 | ABC-1 | 0.923
128 | NCI-H358 | 1.08
129 | NCI-H650 | 0.883
130 | PC-3 [JPC-3] | 1.04

Same assay, conditions: 0.253 µM

Row | Cell Line | relative viability
131 | NCI-H23 | 0.873
132 | NCI-H1299 | 1.01
133 | NCI-H647 | 0.932
134 | CAL-12T | 0.986
135 | NCI-H1651 | 0.966
136 | EPLC-272H | 0.901
137 | NCI-H2228 | 1.03
138 | NCI-H1792 | 0.858
139 | NCI-H1355 | 0.982
140 | NCI-H3122 | 0.976
141 | NCI-H1437 | 1
142 | NCI-H1755 | 0.962
143 | NCI-H2023 | 0.903
144 | HCC-15 | 1
145 | NCI-H1793 | 0.967
146 | PC-14 | 0.95
147 | EKVX | 0.918
148 | LC-2-ad | 0.902
149 | NCI-H1563 | 0.96
150 | NCI-H1944 | 0.901
151 | NCI-H1975 | 0.948
152 | RERF-LC-KJ | 1.04
153 | ABC-1 | 0.743
154 | NCI-H358 | 0.978
155 | NCI-H650 | 0.937
156 | PC-3 [JPC-3] | 1.03

Same assay, conditions: 0.8 µM

Row | Cell Line | relative viability
157 | NCI-H23 | 0.932
158 | NCI-H1299 | 1
159 | NCI-H647 | 0.881
160 | CAL-12T | 0.928
161 | NCI-H1651 | 0.961
162 | EPLC-272H | 0.949
163 | NCI-H2228 | 0.907
164 | NCI-H1792 | 0.877
165 | NCI-H1355 | 0.965
166 | NCI-H3122 | 0.98
167 | NCI-H1437 | 0.988
168 | NCI-H1755 | 0.949
169 | NCI-H2023 | 0.987
170 | HCC-15 | 1.03
171 | NCI-H1793 | 0.859
172 | PC-14 | 0.944
173 | EKVX | 0.905
174 | LC-2-ad | 0.978
175 | NCI-H1563 | 0.995
176 | NCI-H1944 | 0.944
177 | NCI-H1975 | 0.989
178 | RERF-LC-KJ | 1.03
179 | ABC-1 | 0.744
180 | NCI-H358 | 0.841
181 | NCI-H650 | 0.86
182 | PC-3 [JPC-3] | 1.04

Same assay, conditions: 2.53 µM

Row | Cell Line | relative viability
183 | NCI-H23 | 1.04
184 | NCI-H1299 | 1.04
185 | NCI-H647 | 1.08
186 | CAL-12T | 1.09
187 | NCI-H1651 | 0.991
188 | EPLC-272H | 0.879
189 | NCI-H2228 | 1.01
190 | NCI-H1792 | 0.852
191 | NCI-H1355 | 0.993
192 | NCI-H3122 | 0.999
193 | NCI-H1437 | 1.05
194 | NCI-H1755 | 1.01
195 | NCI-H2023 | 1.1
196 | HCC-15 | 0.97
197 | NCI-H1793 | 1.02
198 | PC-14 | 1.07
199 | EKVX | 1.01
200 | LC-2-ad | 0.995
201 | NCI-H1563 | 0.949
202 | NCI-H1944 | 0.955
203 | NCI-H1975 | 1.01
204 | RERF-LC-KJ | 1.01
205 | ABC-1 | 1.08
206 | NCI-H358 | 0.943
207 | NCI-H650 | 0.969
208 | PC-3 [JPC-3] | 1.06

Same assay, conditions: 8 µM

Row | Cell Line | relative viability
209 | NCI-H23 | 0.9
210 | NCI-H1299 | 1
211 | NCI-H647 | 0.971
212 | CAL-12T | 0.932
213 | NCI-H1651 | 0.931
214 | EPLC-272H | 0.743
215 | NCI-H2228 | 0.957
216 | NCI-H1792 | 0.974
217 | NCI-H1355 | 0.856
218 | NCI-H3122 | 0.956
219 | NCI-H1437 | 0.912
220 | NCI-H1755 | 1.03
221 | NCI-H2023 | 0.989
222 | HCC-15 | 0.963
223 | NCI-H1793 | 0.843
224 | PC-14 | 0.94
225 | EKVX | 0.864
226 | LC-2-ad | 0.945
227 | NCI-H1563 | 0.878
228 | NCI-H1944 | 0.835
229 | NCI-H1975 | 0.924
230 | RERF-LC-KJ | 0.967
231 | ABC-1 | 0.776
232 | NCI-H358 | 1.01

From the supplement of paper PMC10307832
